Entries after “also recorded” stand apart in the source; their conditions may differ.
Legend:
[1] = test system: Jurkat/NFATLuc.3C7 cells + Raji cells; assay: Jurkat/NFATLuc reporter bioassay with Raji cells; format: cell-based; details: highest RLU / lowest RLU
Method: (§1) Activity of the anti-BCMA×anti-CD3 bispecific antibodies were assessed in a Jurkat/NFATLuc reporter bioassay utilizing several cell lines with varying levels of BCMA surface expression. The Jurkat cells were engineered to express an NFAT-luciferase reporter (Jurkat/NFATLuc.3C7), and 50,000 Jurkat reporter cells were combined with 50,000 BCMA positive (Daudi, MM1-S, NCI-H929, OPM-2, RPMI-8226, MOLP-8, or Raji) or BCMA negative (HEK293) cells in Thermo Nunclon delta 96 well white microwell plates (Thermo Scientific, Cat #136102) in 50 ul of assay media (RPMI media with 10% FBS and 1% P/S/G). Three-fold serial dilutions of the BCMA×CD3 bispecific antibodies (mAb25441 D or mAb25442D), or a bivalent anti-BCMA antibody (mAb21581) were immediately added in 50 μL of assay buffer. The plates were gently agitated and incubated in a 37° C., 5% CO2 incubator for 4-6 hours. NFAT-Luciferase activity was determined using Promega One-Glo (Cat #E6130) and a Perkin Elmer Envision plate reader. RLU were plotted in GraphPad Prism using a four-parameter logistic equation over a 12-point response curve to calculate EC50 values. […] The signal to noise (S:N) is determined by taking the ratio of the highest RLU on the curve to the lowest.

[2] = test system: established BCMA-expressing NCI-H929 tumors; assay: Established NCI-H929 + PBMC xenogenic tumor model, treatment from day 5 (Example 12); format: in vivo, mouse; details: for Average Tumor Size (mm3) ± SEM on Day 5: Day 5 (day of first dose)
Method: To determine the in vivo efficacy of anti-BCMA×anti-CD3 bispecific antibodies (Abs), a xenogenic tumor study was performed. Immunodeficient NOD.Cg-Prkdc^scidIl2rg^tm1Wji/SzJ (NSG) mice were subcutaneously implanted with a mixture of 10×10^6 BCMA-expressing NCI-H929 human multiple myeloma tumor cells and 0.5×10^6 human peripheral blood mononuclear cells (PBMC) isolated from a normal, healthy donor. The tumors were allowed to grow and establish for 5 days until they were approximately 70 mm^3 in size. […] The mice were administered these Abs twice per week for a total of seven doses, and tumor growth was assessed over 55 days. While BCMA^+ NCI-H929 tumors grew similarly in the vehicle- and CD3-binding control-treated mice, both BCMA×CD3 Abs that were tested shrank established tumors and prevented the growth of tumors in a dose-dependent manner in vivo.
Implantation and measurement of xenogenic tumors: NSG mice were subcutaneously implanted with a mixture of 10×10^6 BCMA-expressing NCI-H929 multiple myeloma cells and 0.5×10^6 PBMC derived from a normal, healthy donor. The tumors were allowed to grow and establish for 5 days until they were approximately 70 mm^3 in size. […] The mice were administered Abs twice per week for a total of seven doses. Tumor growth was measured with calipers twice per week for the duration of the experiment.
Calculation of xenogenic tumor growth and inhibition: In order to determine tumor volume by external caliper, the greatest longitudinal diameter (length in mm) and the greatest transverse diameter (width in mm) were determined. Tumor volumes based on caliper measurements were calculated by the formula: Volume (mm^3) […] (length×width^2)/2.

[3] = test system: Jurkat/NFATLuc.3C7 cells + Daudi cells; assay: Jurkat/NFATLuc reporter bioassay with Daudi cells; format: cell-based; details: highest RLU / lowest RLU
Method: as §1

[4] = target: T1, cynomolgus CD3 (mfCD3 engineered Jurkat cell line) (Macaca fascicularis, UniProt Q95LI5+Q95LI8); assay: FACS binding to mfCD3 engineered Jurkat cells; details: median EC50, FACS binding
T1 construct: expressed in transfected cells; host or cells: Jurkat cells, CRISPR/Cas9-engineered (mfCD3 engineered Jurkat cell line)
Method: Flow cytometric analysis was utilized to determine binding of BCMA×CD3 bispecific antibodies to human and cynomolgus CD3 (Jurkat cells, mfCD3 engineered Jurkat cells, primary human CD8+ and cynomolgus CD8+ T cells). Briefly, 1e05 cells/well were incubated in the presence of FACS wash with block (PBS+1% filtered FBS+5% mouse serum) with a serial dilution of BCMA×CD3 and control antibodies for 30 minutes on ice. After incubation, the cells were washed twice with cold FACS wash (PBS+1% filtered FBS) and bound antibody was detected by incubating with Alexa647-conjugated anti-human secondary antibody on ice for an additional 30 minutes. Wells containing no antibody or secondary only were used as a control. For the detection of monkey and human T cells, a cocktail of human and cynomolgus cross-reactive antibodies to CD4, CD8 and CD16 was added to the anti-human secondary. After incubation, cells were washed, re-suspended in 200 μL cold PBS containing 1% filtered FBS and analyzed by flow cytometry on a BD FACS Canto II. Cells were gated by FSC-H by FSC-A to select singlet events, followed by side and forward scatters to select for live events. For monkey T cells, additional gating on CD8+/CD16− cells was performed.
EC50 values for FACS binding were calculated using 4-parameter non-linear regression analysis in Prism software. […]

[5] = test system: Jurkat/NFATLuc.3C7 cells + RPMI-8226 cells; assay: Jurkat/NFATLuc reporter bioassay with RPMI-8226 cells; format: cell-based; details: highest RLU / lowest RLU
Method: as §1

T1 sequence (Q95LI5 22-198, change not shown): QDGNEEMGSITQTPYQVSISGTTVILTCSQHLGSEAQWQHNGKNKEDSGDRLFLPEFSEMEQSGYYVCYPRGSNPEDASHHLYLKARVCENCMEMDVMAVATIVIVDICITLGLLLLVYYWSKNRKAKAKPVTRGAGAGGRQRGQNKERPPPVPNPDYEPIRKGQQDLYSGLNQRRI
T1 sequence (Q95LI8 22-171, change not shown): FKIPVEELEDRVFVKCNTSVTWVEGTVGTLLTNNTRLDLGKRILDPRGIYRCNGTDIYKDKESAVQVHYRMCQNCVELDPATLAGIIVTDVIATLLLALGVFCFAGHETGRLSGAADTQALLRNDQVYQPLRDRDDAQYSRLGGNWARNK
T1 sequence (P09693 23-182 partner): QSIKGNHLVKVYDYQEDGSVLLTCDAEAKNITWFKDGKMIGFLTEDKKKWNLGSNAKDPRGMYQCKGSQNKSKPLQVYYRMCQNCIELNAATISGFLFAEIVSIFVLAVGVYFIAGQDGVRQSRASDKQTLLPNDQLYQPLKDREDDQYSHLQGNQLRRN
T1 sequence (P20963 22-164 partner): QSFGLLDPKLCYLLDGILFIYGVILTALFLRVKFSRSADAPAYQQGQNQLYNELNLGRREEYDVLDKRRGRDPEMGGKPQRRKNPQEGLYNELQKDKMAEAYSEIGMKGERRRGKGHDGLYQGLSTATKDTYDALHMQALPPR

Substance | S:N [1] | Average Tumor Size (mm3) ± SEM on Day 5 ([2]; 0.04 mg/kg) | Average Tumor Size (mm3) ± SEM on Day 8 ([2]; 0.04 mg/kg) | Average Tumor Size (mm3) ± SEM on Day 12 ([2]; 0.04 mg/kg) | Average Tumor Size (mm3) ± SEM on Day 15 ([2]; 0.04 mg/kg) | Average Tumor Size (mm3) ± SEM on Day 19 ([2]; 0.04 mg/kg) | Average Tumor Size (mm3) ± SEM on Day 22 ([2]; 0.04 mg/kg) | Average Tumor Size (mm3) ± SEM on Day 5 ([2]; 0.4 mg/kg) | Average Tumor Size (mm3) ± SEM on Day 8 ([2]; 0.4 mg/kg) | Average Tumor Size (mm3) ± SEM on Day 12 ([2]; 0.4 mg/kg) | Average Tumor Size (mm3) ± SEM on Day 15 ([2]; 0.4 mg/kg) | Average Tumor Size (mm3) ± SEM on Day 19 ([2]; 0.4 mg/kg) | Average Tumor Size (mm3) ± SEM on Day 22 ([2]; 0.4 mg/kg) | Average Tumor Size (mm3) ± SEM on Day 27 ([2]; 0.4 mg/kg) | Average Tumor Size (mm3) ± SEM on Day 30 ([2]; 0.4 mg/kg) | Average Tumor Size (mm3) ± SEM on Day 35 ([2]; 0.4 mg/kg) | Average Tumor Size (mm3) ± SEM on Day 40 ([2]; 0.4 mg/kg) | Average Tumor Size (mm3) ± SEM on Day 55 ([2]; 0.4 mg/kg) | Average Tumor Size (mm3) ± SEM on Day 5 ([2]; 4 mg/kg) | Average Tumor Size (mm3) ± SEM on Day 8 ([2]; 4 mg/kg) | also measured
REGN5458: anti-BCMA×anti-CD3 bispecific antibody: BCMA HCVR of mAb21581 (SEQ 66), CD3 HCVR of mAb7221G (SEQ 90), common LCVR SEQ 82 | 123 | 58.1 ± 5.6 mm3 | 130.3 ± 16.7 mm3 | 525.9 ± 71.5 mm3 | 1031.2 ± 164.3 mm3 | 2467.5 ± 370.0 mm3 | 3745.7 ± 541.2 mm3 | 69.3 ± 7.3 mm3 | 120.3 ± 16.3 mm3 | 262.7 ± 61.6 mm3 | 476.2 ± 133.5 mm3 | 1347.5 ± 334.7 mm3 | 2068.5 ± 465.0 mm3 | 3463.9 ± 1025.0 mm3 | 2144.2 ± 2144.2 mm3 | 0 ± 0 mm3 | 0 ± 0 mm3 | 0 ± 0 mm3 | 71.9 ± 10.3 mm3 | 64.7 ± 16.4 mm3 | Average Tumor Size (mm3) ± SEM on Day 27 ([2]; 0.04 mg/kg): 1589.1 ± 0 mm3; Average Tumor Size (mm3) ± SEM on Day 30 ([2]; 0.04 mg/kg): 2886.5 ± 0 mm3; Average Tumor Size (mm3) ± SEM on Day 12 ([2]; 4 mg/kg): 19.5 ± 10.9 mm3; Average Tumor Size (mm3) ± SEM on Day 15 ([2]; 4 mg/kg): 25.6 ± 19.2 mm3; Average Tumor Size (mm3) ± SEM on Day 19 ([2]; 4 mg/kg): 40.6 ± 32.8 mm3; Average Tumor Size (mm3) ± SEM on Day 22 ([2]; 4 mg/kg): 78.3 ± 60.8 mm3; Average Tumor Size (mm3) ± SEM on Day 27 ([2]; 4 mg/kg): 252.3 ± 185.1 mm3; Average Tumor Size (mm3) ± SEM on Day 30 ([2]; 4 mg/kg): 411.3 ± 307.2 mm3; Average Tumor Size (mm3) ± SEM on Day 35 ([2]; 4 mg/kg): 633.5 ± 473.5 mm3; Average Tumor Size (mm3) ± SEM on Day 40 ([2]; 4 mg/kg): 369.5 ± 369.5 mm3; Average Tumor Size (mm3) ± SEM on Day 55 ([2]; 4 mg/kg): 0 ± 0 mm3; S:N [3]: 43; EC50 [4]: 15.1 nM; S:N [5]: 55
REGN5459: anti-BCMA×anti-CD3 bispecific antibody: BCMA HCVR of mAb21581 (SEQ 66), CD3 HCVR of mAb7221G20 (SEQ 98), common LCVR SEQ 82 | 78 | 74.9 ± 6.4 mm3 | 152.3 ± 20.0 mm3 | 462.5 ± 57.7 mm3 | 1094.2 ± 78.9 mm3 | 2412.5 ± 184.6 mm3 | 3285.9 ± 227.3 mm3 | 69.5 ± 4.1 mm3 | 171.9 ± 23.2 mm3 | 233.8 ± 63.5 mm3 | 327.2 ± 135.6 mm3 | 606.2 ± 288.8 mm3 | 815.4 ± 387.1 mm3 | 1849.9 ± 903.1 mm3 | 661.8 ± 490.1 mm3 | 996.8 ± 771.0 mm3 | 375.6 ± 375.6 mm3 | 0 ± 0 mm3 | 61.8 ± 5.2 mm3 | 45.8 ± 9.8 mm3 | Average Tumor Size (mm3) ± SEM on Day 15 ([2]; 4 mg/kg): 0 ± 0 mm3; Average Tumor Size (mm3) ± SEM on Day 19 ([2]; 4 mg/kg): 0 ± 0 mm3; Average Tumor Size (mm3) ± SEM on Day 22 ([2]; 4 mg/kg): 0 ± 0 mm3; Average Tumor Size (mm3) ± SEM on Day 27 ([2]; 4 mg/kg): 0 ± 0 mm3; Average Tumor Size (mm3) ± SEM on Day 30 ([2]; 4 mg/kg): 0 ± 0 mm3; Average Tumor Size (mm3) ± SEM on Day 35 ([2]; 4 mg/kg): 0 ± 0 mm3; Average Tumor Size (mm3) ± SEM on Day 40 ([2]; 4 mg/kg): 0 ± 0 mm3; Average Tumor Size (mm3) ± SEM on Day 55 ([2]; 4 mg/kg): 0 ± 0 mm3; S:N [3]: 25; Jurkat-mfCD3 EC50 [M] [4]: did not bind; also recorded: No Binding; S:N [5]: 42
